Laboratory results: patent publication US20240217990A1 (Gilead Sciences, Inc., priority 2021, published 2024)

Assays:
TLR7 = target: T1, TLR7 (Homo sapiens, UniProt Q9NYK1); test: TLR7 human PBMC cell-based assay (antagonist, GS-986 stimulated cytokine release); conditions: human PBMCs; TLR7 agonist GS-986 400 nM, 6 hours; cytokines (IL-6 and IFNα) in supernatant; read-out: TLR-7 EC50
T1 construct: Human peripheral blood mononuclear cells (PBMCs) consist of lymphocytes, monocytes and dendritic cells that express TLR7, TLR8 and TLR9; endogenous in cells; host or cells: cryopreserved human PBMCs from healthy donors
T1 sequence (Q9NYK1 27-1049): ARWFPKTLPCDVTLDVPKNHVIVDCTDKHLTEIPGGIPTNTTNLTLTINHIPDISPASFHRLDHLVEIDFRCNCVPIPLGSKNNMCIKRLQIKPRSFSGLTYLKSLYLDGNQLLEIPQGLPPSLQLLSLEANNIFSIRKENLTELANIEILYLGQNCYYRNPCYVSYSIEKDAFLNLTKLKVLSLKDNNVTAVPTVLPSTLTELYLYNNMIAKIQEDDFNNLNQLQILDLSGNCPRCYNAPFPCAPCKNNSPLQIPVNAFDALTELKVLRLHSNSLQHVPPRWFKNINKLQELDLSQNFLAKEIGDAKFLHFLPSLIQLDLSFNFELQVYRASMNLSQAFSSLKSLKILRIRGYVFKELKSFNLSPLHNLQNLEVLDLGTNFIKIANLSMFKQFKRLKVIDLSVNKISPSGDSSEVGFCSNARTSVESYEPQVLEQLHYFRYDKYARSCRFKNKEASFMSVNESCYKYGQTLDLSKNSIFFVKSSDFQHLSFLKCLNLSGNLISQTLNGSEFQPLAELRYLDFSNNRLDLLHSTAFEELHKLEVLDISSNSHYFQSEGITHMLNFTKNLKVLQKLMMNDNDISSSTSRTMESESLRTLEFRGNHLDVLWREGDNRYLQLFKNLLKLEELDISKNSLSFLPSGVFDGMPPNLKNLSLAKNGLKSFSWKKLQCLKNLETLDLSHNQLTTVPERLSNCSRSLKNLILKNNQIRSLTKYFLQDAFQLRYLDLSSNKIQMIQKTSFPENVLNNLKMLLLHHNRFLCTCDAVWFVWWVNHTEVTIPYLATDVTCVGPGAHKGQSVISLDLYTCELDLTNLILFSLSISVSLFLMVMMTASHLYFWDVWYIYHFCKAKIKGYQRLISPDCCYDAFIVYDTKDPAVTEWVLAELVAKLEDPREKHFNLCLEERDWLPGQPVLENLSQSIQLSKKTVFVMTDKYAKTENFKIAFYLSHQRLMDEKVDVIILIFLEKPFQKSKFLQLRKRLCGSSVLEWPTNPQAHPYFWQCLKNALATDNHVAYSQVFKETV
How it was run: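 EC50 derived by sigmoidal fitting of IL-6 and IFNα levels, quantified by electrochemiluminescence in supernatants of human PBMCs given 400 nM GS-986 for 6 h. Cells (100,000/well in RPMI-1640, 10% FBS) had received test antagonist 1 h beforehand, 10 doses in quadruplicate, at 37 °C.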

TLR8 = target: T2, TLR8 (Homo sapiens, UniProt Q9NR97); test: TLR8 human PBMC cell-based assay (antagonist, Compound A stimulated cytokine release); conditions: human PBMCs; TLR8 agonist Compound A 800 nM, 6 hours; cytokines (TNFa and IL 12p40) in supernatant; read-out: TLR-8 EC50
T2 construct: Human peripheral blood mononuclear cells (PBMCs) consist of lymphocytes, monocytes and dendritic cells that express TLR7, TLR8 and TLR9; endogenous in cells; host or cells: cryopreserved human PBMCs from healthy donors
T2 sequence (Q9NR97 27-1041): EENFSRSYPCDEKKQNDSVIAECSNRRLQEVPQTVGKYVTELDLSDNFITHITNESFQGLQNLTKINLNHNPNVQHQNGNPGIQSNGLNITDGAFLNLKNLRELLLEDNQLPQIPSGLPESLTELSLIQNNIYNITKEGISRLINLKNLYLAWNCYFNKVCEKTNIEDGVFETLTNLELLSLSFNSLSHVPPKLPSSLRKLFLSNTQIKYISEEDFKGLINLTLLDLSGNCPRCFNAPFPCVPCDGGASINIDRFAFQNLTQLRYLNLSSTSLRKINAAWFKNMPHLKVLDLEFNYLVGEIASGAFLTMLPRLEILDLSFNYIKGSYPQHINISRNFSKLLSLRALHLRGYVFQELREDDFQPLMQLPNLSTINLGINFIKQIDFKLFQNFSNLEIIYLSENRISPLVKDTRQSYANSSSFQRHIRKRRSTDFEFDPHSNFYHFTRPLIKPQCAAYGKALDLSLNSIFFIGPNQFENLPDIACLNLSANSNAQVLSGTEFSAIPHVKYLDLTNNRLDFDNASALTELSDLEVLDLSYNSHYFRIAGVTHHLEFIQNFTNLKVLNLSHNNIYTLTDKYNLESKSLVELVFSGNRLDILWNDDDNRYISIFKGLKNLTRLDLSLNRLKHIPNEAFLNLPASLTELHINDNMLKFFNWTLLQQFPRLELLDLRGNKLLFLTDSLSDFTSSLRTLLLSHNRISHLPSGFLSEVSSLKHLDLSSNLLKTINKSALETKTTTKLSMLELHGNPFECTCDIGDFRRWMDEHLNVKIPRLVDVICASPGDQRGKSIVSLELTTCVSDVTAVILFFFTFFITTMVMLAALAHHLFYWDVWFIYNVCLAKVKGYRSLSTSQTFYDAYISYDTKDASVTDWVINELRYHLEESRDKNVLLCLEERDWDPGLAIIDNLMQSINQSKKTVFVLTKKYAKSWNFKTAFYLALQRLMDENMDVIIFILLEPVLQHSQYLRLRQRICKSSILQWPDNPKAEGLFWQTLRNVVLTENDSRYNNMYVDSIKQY
How it was run: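 Cryopreserved donor PBMCs (100,000/well, RPMI + 10% FBS) were preincubated 1 h with antagonist (10-point dose response, quadruplicate), then stimulated with Compound A (800 nM final) for 6 h at 37 °C. TNFa and IL-12p40 in supernatants were measured by electrochemiluminescence; sigmoidal fits gave EC50.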

| EC50 (TLR7) | EC50 (TLR8) | Compound |
| --- | --- | --- |
| 33.7 nM | 26.9 nM | Cc1cc(-c2[nH]c3cc(C(=O)N4C[C@@H]5NCCO[C@@H]5C4)sc3c2C(C)C)cn2ncnc12 [Example 132] |
| 223 nM | 26.4 nM | Cc1cc(-c2[nH]c3cc(C(=O)N4C[C@@H]5C[C@H]4CN5)sc3c2C(C)C)cc(C)n1 [Example 20] |
| 7.9 nM | 17.4 nM | Cc1cc(-c2[nH]c3cc(C(=O)N(C)[C@H]4CNC[C@H]4F)sc3c2C(C)C)cn2ncnc12 [Example 61] |
| 21 nM | 6.7 nM | Cc1cc(-c2[nH]c3cc(C(=O)N4C[C@H]5NCCO[C@@H]5C4)sc3c2C(C)C)cn2ncnc12 [Example 131] |
| 45.7 nM | 27.2 nM | Cc1cc(-c2[nH]c3cc(C(=O)N4CCCNCC4)sc3c2C(C)C)cc(C)n1 [Example 13] |
| 1.8 nM | 1.6 nM | Cc1cc(-c2[nH]c3cc(-c4cn(C5CCN(CCO)CC5)nn4)sc3c2C(C)C)cn2ncnc12 [Example 264, 2-(4-(4-(6-isopropyl-5-(8-methyl-[1,2,4]triazolo[1,5-a]pyridin-6-yl)-4H-thieno[3,2-b]pyrrol-2-yl)-1H-1,2,3-triazol-1-yl)piperidin-1-yl)ethan-1-ol] |
| 1.5 nM | 0.5 nM | Cc1cc(-c2[nH]c3cc(C(=O)N4C[C@@H](C)N[C@H](C)C4)sc3c2C(C)C)cn2ncnc12 [Example 127] |
| 2.78 nM | 0.78 nM | Cc1c(-c2[nH]c3cc(C4CCN(CC(N)=O)CC4)sc3c2C(C)C)cn2ncnc2c1C [Example 279] |
| 0.14 nM | 1.19 nM | Cc1cc(-c2[nH]c3cc(C4CCC5(C4)CN(CC(N)=O)C5)sc3c2C(C)C)cn2ncnc12 (racemic) [Example 295, 2-(6-(6-Isopropyl-5-(8-methyl-[1,2,4]triazolo[1,5-a]pyridin-6-yl)-4H-thieno[3,2-b]pyrrol-2-yl)-2-azaspiro[3.4]octan-2-yl)acetamide] |
| 1.37 nM | 3.47 nM | Cc1nc2c(C)cc(-c3[nH]c4cc(C5CCN(CC(N)=O)CC5)sc4c3C(C)C)cn2n1 [Example 283] |
| 88.7 nM | 94.1 nM | Cc1cc(-c2[nH]c3cc(C(=O)N(C)C4CCN(CC(F)F)CC4)sc3c2C(C)C)cn2ncnc12 [Example 134] |
| 2.74 nM | 19.5 nM | Cc1cc(-c2[nH]c3cc(C4CC5CCCC(C4)N5)sc3c2C(C)C)cn2ncnc12 (centres unmarked) [Example 297] |
| 43.5 nM | 15.1 nM | Cc1cc(-c2[nH]c3cc(C(=O)N4CC5CCC(C4)N5)sc3c2C(C)C)cc(C)n1 [Example 16] |
| 0.3 nM | 9.1 nM | Cc1cc(-c2[nH]c3cc(C(=O)N(C)[C@@H]4CCNC[C@@H]4F)sc3c2C(C)C)cn2ncnc12 [Example 79] |
| 3.7 nM | 54.5 nM | Cc1cc(-c2[nH]c3cc(C(=O)N(C)CC4CCNCC4)sc3c2C(C)C)cn2ncnc12 [Example 113] |
| 9.6 nM | 22.5 nM | Cc1cc(-c2[nH]c3cc(C(=O)N(C)CCN(C)C4CC4)sc3c2C(C)C)cn2ncnc12 [Example 100] |
| 1.7 nM | 3.1 nM | Cc1c(-c2[nH]c3cc(-c4ccc(N5CCNCC5)cc4)sc3c2C(C)C)cn2ncnc2c1C [Example 231] |
| 1 nM | 0.3 nM | Cc1c(-c2[nH]c3cc(C(=O)N4CCNC(C)(C)C4)sc3c2C(C)C)cn2ncnc2c1C [Example 86] |
| 2.5 nM | 0.3 nM | Cc1cc(-c2[nH]c3cc(C4CCN(C5CCC5)CC4)sc3c2C(C)C)cn2ncnc12 [Example 195] |
| 1.4 nM | 18.2 nM | Cc1cc(-c2[nH]c3cc(C(=O)N4CCCC5CNCC54)sc3c2C(C)C)cn2ncnc12 (centres unmarked) [Example 109] |
| 822 nM | > 1000 nM | CC(C)c1c(-c2ccn3ccnc3c2)[nH]c2cc(C(=O)N3CCNCC3)sc12 [Example 68] |
| 0.2 nM | 1 nM | Cc1cc(-c2[nH]c3cc(C4CCC5(CC4)CN(CCO)C5)sc3c2C(C)C)cn2ncnc12 [Example 191] |
